Here are results for seven molecules from patent US11850305B2 (GLAXOSMITHKLINE BIOLOGICALS SA, priority 2010, dated 2023).

The nature of data set [1]: pKa measurement of lipid with TNS fluorescent probe. The data set is classed as physicochemical. An excerpt:
This is done with all eight buffers.

For data set [2], the system named is RSV F protein. As to the kind of experiment: Total IgG titers against F protein after replicon delivery in liposomes with alternative cationic lipids. The class given is in vivo. Conditions: cationic lipid of RV01 liposomes replaced; 2wp1 and 2wp2. The text has this: These liposomes were also used to deliver a replicon encoding full-length RSV F protein. Total IgG titers against F protein two weeks after the first dose (2wp1) are plotted against pKa in FIG. 16. The best results are seen where the pKa is where the cationic lipid has a pKa between 5.7-5.9, but pKa alone is not enough to guarantee a high titer e.g. the lipid must still support liposome formation.
The cationic lipid in RV01 liposomes (DLinDMA) was replaced by RV16, RV17, RV18 or RV19.

The subject of data set [3] is BHK cells. As to the kind of experiment: BHK expression. The settings on record: liposomes incubated with BHK cells overnight. The class given is cell-based. The procedure:
Liposomes with different lipids were incubated with BHK cells overnight and assessed for protein expression potency. From a baseline with RV05 lipid expression could be increased 18× by adding 10% 1,2-diphytanoyl-sn-glycero-3-phosphoethanolamine (DPyPE) to the liposome, 10× by adding 10% 18:2 (cis) phosphatidylcholine, and 900× by instead using RV01.

Where [4] appears, read: probe 6-(p-toluidino)-2-naphthalenesulfonic acid (TNS), lipid alone, TNS fluorescence method, read-out: pKa of cationic lipid.

Like-named read-outs stand apart in the source and are kept apart here.

Usually pKa stands for the pH at which an ionisable group is half protonated. With `CCCCC/C=C\C/C=C\CCCCCCCCOCC(CN1CCCC1C)OCCOCCOCCNC(=O)O[C@H]1CC[C@@]2(C)C(=CC[C@H]3[C@@H]4CC[C@H]([C@H](C)CCCC(C)C)[C@@]4(C)CC[C@@H]32)C1` (some centres unmarked) [RV12], the pKa in data set [1] came out at 7.
Take `CCCCCCCC/C=C\CCCCCCCC(=O)N[C@@H](CCNC(=N)N)C(=O)NCCCCCCCCCCCCCCCC` [RV02]: the pKa in data set [1] (setting [4]) is more than 9.
`CCCCC/C=C\C/C=C\CCCCCCCCOCC(CN1CCC(C)(C)C1)OCCOCCO[C@H]1CC[C@@]2(C)C(=CC[C@H]3[C@@H]4CC[C@H]([C@H](C)CCCC(C)C)[C@@]4(C)CC[C@@H]32)C1` (some centres unmarked) [RV05] had a pKa in data set [1] of approximately 5.8.
For `CCCCC/C=C\C/C=C\CCCCCCCCNC(=O)C(CN(C)C)NC(=O)CCCCCCC/C=C\C/C=C\CCCCC` (centres unmarked), in data set [1] (setting [4]), the pKa was 6.1.
For `CCCCCCCC/C=C\CCCCCCCCOCC(C[N+](C)(C)C)OCCCCCCCC/C=C\CCCCCCCC.[Cl-]` (centres unmarked) [RV19], the “Total IgG titers (FIG. 17)” value in data set [2] is given as “lowest results”.
Take `CCCCCCCC/C=C\CCCCCCCCNC(=O)C(CN(C)C)NC(=O)CCCCCCC/C=C\CCCCCCCC` (centres unmarked) [RV17]: the pKa in data set [1] (setting [4]) stood at 6.1.
In the case of `CCCCC/C=C\C/C=C\CCCCCCCCOCC(CN(C)C)OCCCCCCCC/C=C\C/C=C\CCCCC` (centres unmarked) [RV01, 1,2-dilinoleyloxy-N,N-dimethyl-3-aminopropane, reference compound], the pKa in data set [1] (setting [4]) was approximately 5.8. Also, the “increase of protein expression from a baseline with RV05 lipid” value in data set [3] came to 900 ×.
